Experimental data as given in patent US8426447B2, “Spiro-tricyclic ring compounds as beta-secretase modulators and methods of use” (Amgen Inc., priority 2008, dated 2013).

Experiments:
BACE1 [1] = molecular target: T1, BACE1 (Homo sapiens, UniProt P56817); experiment: In Vitro Enzymatic BACE FRET (Fluorescence Resonance Energy Transfer) Assay; type: biochemical; conditions: read-out: BACE1 FRET assay
Procedure, shortened: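 Buffer 0.05 M acetate pH 4.2 with 10% DMSO final and 100 uM genapol; reaction started with 50 nM FRET peptide substrate (fluorophore/quencher flanking BACE cleavage site), incubated one hour. Stopped with Tris buffer raising pH to neutrality, then fluorescence read.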

BACE1 [2] = molecular target: T1, BACE1; experiment: In Vitro BACE Cell-based Assay (HEK cell assay): Aβ40 in conditioned medium of cells stably expressing Amyloid Precursor Protein, sandwich ELISA; conditions: read-out: HEK cell assay
Procedure, shortened: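 Conditioned medium Aβ40 by ELISA: pAb40 capture 3 h 4° C., biotin-6E10 detection 2 h 4° C., Streptavidin-Europium TRF. IC50 fitted from % control.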

[3] = in vitro BACE FRET enzyme assay, IC50 class symbols
[4] = HEK cell-based assay, Aβ40 in conditioned medium, IC50 class symbols
[5] = Table II, Aβ40, 24 h incubation

T1 sequence (P56817 46-501, species assumed): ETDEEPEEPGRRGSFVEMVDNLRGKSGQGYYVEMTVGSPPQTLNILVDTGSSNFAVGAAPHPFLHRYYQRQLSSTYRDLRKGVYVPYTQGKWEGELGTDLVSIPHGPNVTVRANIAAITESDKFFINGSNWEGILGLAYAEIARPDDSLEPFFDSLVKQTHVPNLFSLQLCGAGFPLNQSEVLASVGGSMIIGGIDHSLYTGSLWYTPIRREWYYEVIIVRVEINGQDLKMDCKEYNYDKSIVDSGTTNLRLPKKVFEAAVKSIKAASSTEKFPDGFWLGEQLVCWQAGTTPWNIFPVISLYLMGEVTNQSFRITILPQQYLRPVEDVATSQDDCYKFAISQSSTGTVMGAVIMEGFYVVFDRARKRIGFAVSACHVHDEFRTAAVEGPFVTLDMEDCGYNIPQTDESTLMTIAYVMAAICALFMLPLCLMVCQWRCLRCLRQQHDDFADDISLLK

## Cn1ccc2cc(-c3ccc4c(c3)[C@@]3(COC(N)=N3)c3cc(OCC(C)(C)C)ccc3O4)ccc21 [compound 914]
BACE1 [1]; Table IV, class symbols
  IC50: 0.1 to 1 µM
BACE1 [2]; Table IV, class symbols
  IC50: > 5 µM

## CC(C)(C)/C=C/c1cnc2c(c1)[C@]1(COC(N)=N1)c1cc(-c3cccnc3F)ccc1O2 [compound 380]
BACE1 [1]; [3]
  IC50: < 0.1 µM
BACE1 [2]; [4]
  IC50: < 0.1 µM

## NC1=N[C@]2(CO1)c1ccccc1Oc1ccc(-c3cccc4cccnc34)cc12 [compound 630]
BACE1 [1]; Table IV, class symbols
  IC50: 1 to 5 µM
BACE1 [2]; Table IV, class symbols
  IC50: > 5 µM

## CC(C)(C)CC(=O)c1ccc2c(c1)[C@@]1(CSC(N)=N1)c1cc(-c3cncnc3)ccc1O2 [compound 762]
BACE1 [1]
  IC50: 0.1 to 1 µM
BACE1 [2]
  IC50: 1 to 5 µM

## CCC1(CC)CN(c2ccc3c(c2)[C@]2(COC(N)=N2)c2cc(-c4cncnc4)ccc2O3)CCO1 [compound 467]
BACE1 [1]
  IC50: < 0.1 µM
BACE1 [2]; HEK cells
  IC50: 0.1 to 1 µM

## CC(C)(C)OC(=O)/C=C/c1ccc2c(c1)[C@]1(COC(N)=N1)c1cc(-c3cncnc3)ccc1O2 [compound 994]
BACE1 [1]
  IC50: 0.1 to 1 µM
BACE1 [2]
  IC50: 1 to 5 µM

## COC(=O)/C=C/c1ccc2c(c1)[C@@]1(COC(N)=N1)c1cc(Br)ccc1O2 [compound 169]
BACE1 [1]; Table III, IC50's in uM ranges
  IC50: 1 to 5 µM
BACE1 [2]; Table III, IC50's in uM ranges
  IC50: > 5 µM

## CC(C)(C)COc1ccc2c(n1)[C@]1(COC(N)=N1)c1cc(Br)ccc1O2 [compound 735]
BACE1 [1]
  IC50: 1 to 5 µM
BACE1 [2]
  IC50: 1 to 5 µM

## CC1(COc2cnc3c(c2)[C@]2(COC(N)=N2)c2cc(-c4ccccc4F)ccc2O3)COC1 [compound 458]
BACE1 [1]
  IC50: < 0.1 µM
BACE1 [2]; HEK cells
  IC50: < 0.1 µM

## NC1=NC2(CO1)c1cc(-c3cncnc3)ccc1Oc1ccc(-c3cncnc3)cc12 [compound 137]
BACE1 [1]; Table III, IC50's in uM ranges
  IC50: < 0.1 µM
BACE1 [2]; Table III, IC50's in uM ranges
  IC50: 0.1 to 1 µM

## CC(C)(C)COc1ccc2c(c1)[C@]1(COC(N)=N1)c1cc(C(=O)NC3CC3)ccc1O2 [compound 798]
BACE1 [1]; Table IV, class symbols
  IC50: < 0.1 µM
BACE1 [2]; Table IV, class symbols
  IC50: < 0.1 µM

## CC(C)(C)OC(=O)n1cccc1-c1ccc2c(c1)[C@@]1(COC(N)=N1)c1cccc(F)c1O2 [compound 510]
BACE1 [1]
  IC50: 1 to 5 µM
BACE1 [2]; HEK cells
  IC50: 1 to 5 µM

## CC(C)(C)COc1ccc2c(c1)[C@@]1(COC(N)=N1)c1cc(-c3cccnc3)cnc1O2 [Example 93, (5S)-7-(2,2-dimethylpropoxy)-3-(3-pyridinyl)spiro[chromeno[2,3-b]pyridine-5,4′-[1,3]oxazol]-2′-amine]
BACE1 [1]; Table II
  IC50: 0.1 to 1 µM
BACE1 [2]; [5]
  IC50: 0.1 to 1 µM

## NC1=N[C@]2(CO1)c1cc(-c3cccnc3)ccc1Oc1cnc(C3CC3)cc12 [compound 678]
BACE1 [1]
  IC50: < 0.1 µM
BACE1 [2]
  IC50: 0.1 to 1 µM

## COC1CN(c2cc(F)c3c(c2)[C@]2(COC(N)=N2)c2cc(-c4cccnc4)ccc2O3)C1 [compound 474]
BACE1 [1]
  IC50: < 0.1 µM
BACE1 [2]; HEK cells
  IC50: < 0.1 µM

## CC(C)(F)COc1cnc2c(c1)[C@]1(COC(N)=N1)c1cc(-c3ccc(F)nc3)ccc1O2 [compound 451]
BACE1 [1]
  IC50: < 0.1 µM
BACE1 [2]; HEK cells
  IC50: < 0.1 µM

## COC(=O)/C=C/c1ccc2c(c1)[C@]1(COC(N)=N1)c1cc(-c3cncnc3)ccc1O2 [compound 993]
BACE1 [1]
  IC50: < 0.1 µM
BACE1 [2]
  IC50: 0.1 to 1 µM

## NC1=N[C@@]2(CO1)c1cc(-c3cc(Cl)ccc3F)ccc1Oc1ncc(C3CCOCC3)cc12 [compound 404]
BACE1 [1]; [3]
  IC50: < 0.1 µM
BACE1 [2]; [4]
  IC50: < 0.1 µM

## COc1ccc2c(c1)[C@]1(COC(N)=N1)c1cc(-c3cncnc3)cnc1O2 [Example 54, (5R)-7-methoxy-3-(5-pyrimidinyl)spiro[chromeno[2,3-b]pyridine-5,4′-[1,3]oxazol]-2′-amine]
BACE1 [1]; Table II
  IC50: 1 to 5 µM
BACE1 [2]; [5]
  IC50: > 5 µM

## COc1ccc2c(c1)[C@@]1(COC(N)=N1)c1cc(Br)cc(F)c1O2 [compound 378]
BACE1 [1]; [3]
  IC50: 1 to 5 µM
BACE1 [2]; [4]
  IC50: > 5 µM

## CC(C)(C)COc1ccc2c(c1)[C@@]1(COC(N)=N1)c1ccccc1O2 [compound 665]
BACE1 [1]
  IC50: 0.1 to 1 µM
BACE1 [2]
  IC50: 1 to 5 µM

## NC1=N[C@@]2(CO1)c1cc(-c3cccnc3)ccc1Oc1ccc(-c3cncs3)cc12 [compound 660]
BACE1 [1]; Table IV, class symbols
  IC50: < 0.1 µM
BACE1 [2]; Table IV, class symbols
  IC50: < 0.1 µM

## NC1=N[C@@]2(CO1)c1cc(-c3cncc(F)c3)ccc1Oc1cnc(C3CCOCC3)cc12 [compound 331]
BACE1 [1]; [3]
  IC50: < 0.1 µM
BACE1 [2]; [4]
  IC50: < 0.1 µM

## CC(C)(C)COc1ccc2c(c1)[C@]1(COC(N)=N1)c1cc(N3CCCC3)ccc1O2 [compound 815]
BACE1 [1]; Table IV, class symbols
  IC50: 0.1 to 1 µM
BACE1 [2]; Table IV, class symbols
  IC50: 1 to 5 µM

## NC1=NC2(CO1)c1cc(C3CC3)ccc1Oc1ccc(C3CC3)cc12 [compound 760]
BACE1 [1]
  IC50: 1 to 5 µM
BACE1 [2]
  IC50: 1 to 5 µM

## C[Si](C)(C)C#Cc1cnc2c(c1)[C@]1(COC(N)=N1)c1cc(-c3cccnc3)ccc1O2 [compound 348]
BACE1 [1]; [3]
  IC50: < 0.1 µM
BACE1 [2]; [4]
  IC50: < 0.1 µM

## Cc1cnc(F)c(-c2ccc3c(c2)[C@@]2(COC(N)=N2)c2cc(C4CCOCC4)ncc2O3)c1 [compound 332]
BACE1 [1]; [3]
  IC50: < 0.1 µM
BACE1 [2]; [4]
  IC50: < 0.1 µM

## NC1=N[C@@]2(CO1)c1cc(-c3ccccc3)ccc1Oc1ncc(N3CCOCC3)cc12 [compound 626]
BACE1 [1]; Table IV, class symbols
  IC50: < 0.1 µM
BACE1 [2]; Table IV, class symbols
  IC50: < 0.1 µM
